Measured values taken from patent publication US7323542B2, “Bone targeting peptides” (University of Virginia Patent Foundation, priority 2002, dated 2008).

Tests used:
[1] = system: C4-2 cells binding to huBMEC; experiment: Adhesion of 3H-thymidine labeled C4-2 cancer cells to huBMEC lawns in presence of peptide; assay type: cell-based, human; conditions: for PERCENT OF CONTROL AT 2H ADHESION: C4-2 cells on huBMEC; for inhibition of the ability of C42 cells to bind to huBMEC: in words, based on Table 1
Description: (§1) In accordance with one embodiment a method for inhibiting the growth of tumors is provided. The method comprises the steps of contacting tumor cells with a composition comprising an amino acid sequence selected from the group consisting of SEQ ID NOs: 1-24. As described in Example 3 the peptides of the present invention have been studied for their ability to prevent cancer cells from binding to human bone marrow endothelial cells (huBMEC). Either androgen dependent cancer cells (LNCaP cells) or androgen independent cancer cells (C42 cells) were labeled with 3H-thymidine and placed in contact with huBMEC in the presence of varying concentrations of bone targeting peptides R1 (SEQ ID NO: 25), R3 (SEQ ID NO: 27), L13 (SEQ ID NO: 22) and L19 (SEQ ID NO: 24). The cells were washed and the percent of acid precipitatable counts bound to huBMEC was determined (See Table 1). The control, where no bone targeting peptide was added generated approximately 18% acid ppt counts bound. […] Accordingly, these peptides in particular may be formulated a pharmaceutical compositions to prevent metastases to the bone. The composition may further include known anti-cancer agents such as chemotherapeutic agents. The compositions can be administered to a patient using any of the standard routes including oral and parenteral. In one preferred embodiment the compositions are administered locally by injection.
(§2) The initial interaction of metastatic cells is with the surface of the organ that will be colonized. Presumably, this interaction is through cell-matrix or cell-cell interaction. There are at least two potential targets for prostate cancer cells to interact, bone stromal cells and bone marrow endothelial cells. Briefly, lawns of target cells (D1 or huBMEC) will be established in 24-well dishes by seeding ˜5×10^4 cells per well 2-3 days before the adhesion experiment. At this time, subconfluent (˜50%) cultures of test cells (LNCaP, C4-2, DU145 and PC-3) will be placed into media with 1 uCi/ml tritiated thymidine. Two to three days later, labeled cells will be removed using a 5-10 mM EDTA/PBS solution and 1×10^5 test cells will be added to confluent lawns of target cells. Three groups are envisioned for each cell line 1) no peptide, 2) peptide at ED50 and 3) peptide at ED90.
(§3) There will also be an aliquot of labeled cells set aside to determine total acid precipitablc counts added. Adhesion assays will proceed for either 1 or 2 hours. Adherent cells will be separated from non-adherent cells by 2 rounds of 0.5 ml washes with PBS at 100 rpm for 2 minutes per wash. The remaining cells will then be fixed in 10% TCA for 10 min. with gentle shaking followed by hydrolysis of the residue in 0.5 ml of 2 N NaOH. The NaOH will be neutralized by 100 ul of concentrated HCl. The samples will then be counted in a liquid scintillation apparatus. The data will be analyzed by the Mellon Prostate Center Biostatistics Core to determine differences in growth and the ED50 and ED90 for each peptide if reasonable.
(§4) Using this adhesion assay the bone targeting peptides have been studied for their ability to prevent cancer cells from binding to huBMEC. Either androgen dependent cancer cells (LNCaP cells) or androgen independent cancer cells (C42 cells) were labeled with 3H-thymidine and placed in contact with huBMEC in the presence of varying concentrations of bone targeting peptides R1 (SEQ ID NO: 25), R3 (SEQ ID NO: 27), L13 (SEQ ID NO: 22) and L19 (SEQ ID NO: 24). The cells were washed and the percent of acid precipitatable counts bound to huBMEC was determined (See Table 1). The control, where no bone targeting peptide was added, is not shown, but generated approximately 18% acid ppt counts bound. […] Accordingly, these peptides in particular may be formulated a pharmaceutical compositions to prevent metastases to the bone.

[2] = system: LNCaP cells binding to huBMEC; experiment: Adhesion of 3H-thymidine labeled LNCaP cancer cells to huBMEC lawns in presence of peptide; assay type: cell-based, human; conditions: for PERCENT OF CONTROL AT 2H ADHESION: LNCaP cells on huBMEC; for inhibition of the ability of LNCaP cells to bind to huBMEC: in words, based on Table 1
Description: as §1, §2, §3, §4

[3] = system: bone marrow derived mesenchymal cells and human bone marrow endothelial cells; experiment: Binding of biotin-coupled peptides to cells in vitro, avidin-FITC detection; assay type: cell-based
Description: The cells currently investigated for binding to the peptides of the present invention were chosen because they are derived from bone marrow and are characteristic of mesenchymal cells that are pluripotential and behave as osteoprogenitors. The cells are capable of differentiating into bone cells in vitro and retain their osteogenic properties after transplantation in vivo into syngeneic mice. The human bone marrow endothelial cells are non-osteogenic and, therefore, are in contrast to the collagen type I, and mineral, producing properties of mesenchymal cells. The bone marrow endothelial cells serve the purpose of having a cell that is derived from the endothelial lining of the bone marrow cavity i.e. a cell from the endosteal surface. Although these are not the only cells that can be used, they will form the basis of the majority of the present studies with cells. […]
Peptides have been synthesized with a gly-gly-gly linker and coupled to biotin. […] Fluorescence was found at attachment sites of cellular processes to the substratum. […]
Control experiments with non-biotinylated peptides will ensure that binding avidin-FITC is specific to the properties of the peptide that target the cell surface or its extracellular matrix. No non-specific binding has been encountered so far with the three peptide sequences that have been explored and, there was no background fluorescence.

rib bone = experiment: Localisation of peptides to rib tissue
Description: The peptides may have different effects depending on cell types from different tissues. The need to explore cells from other tissues, such as fibroblasts, adipocytes or muscle cells, may be determined by the location of the peptide ligands in area of tissue that are not directed within bone but there are adjacent to it. The case in point is that one peptide so far, L19, has been located to a tissue, that has not been identified yet, which, is adjacent to bone in rib. […] Analysis of cell types other than marrow mesenchymal or endothelial cells will help identify the specific cells, and their matrices that are targeted by individual peptides.

Row | binding to bone (in rib) (rib bone) | Substance | PERCENT OF CONTROL AT 2H ADHESION ([1]; peptide 50 μM) | PERCENT OF CONTROL AT 2H ADHESION ([1]; peptide 100 μM) | inhibition of the ability of C42 cells to bind to huBMEC [1] | PERCENT OF CONTROL AT 2H ADHESION ([2]; peptide 50 μM) | PERCENT OF CONTROL AT 2H ADHESION ([2]; peptide 100 μM) | inhibition of the ability of LNCaP cells to bind to huBMEC [2] | binding to cells in culture [3] | tissue localisation of peptide (rib bone; preliminary)
1 |  | ALA- THR- TRP-SER-HIS-HIS-LEU-SER-SER-ALA-GLY-LEU (ATWSHHLSSAGL; listed as Homo sapiens) [R3] | 17.9 % of control | 7.9 % of control | substantially inhibits | 14.7 % of control | 3.8 % of control | substantially inhibits |  | 
2 |  | ASN- TYR-SER-HIS-LEU-ARG- VAL-LYS-LEU-PRO-THR-PRO (NYSHLRVKLPTP; listed as Homo sapiens) [R1] | 9.0 % of control | 9.6 % of control |  | 14.7 % of control | 9.9 % of control |  | binds to cells in culture | 
3 | binds to rib bone | SER-GLY-HIS-GLN-LEU-LEU-LEU-ASN-LYS-MET-PRO-ASN (SGHQLLLNKMPN; listed as Homo sapiens) [L13] | 5.8 % of control | 4.2 % of control | substantially inhibits | 3.8 % of control | 2.8 % of control | substantially inhibits |  | 
4 | not detected in the bone itself | ASP-SER-SER-ASN-PRO-ILE-PHE- TRP-ARG-PRO-SER-SER (DSSNPIFWRPSS; listed as Homo sapiens) [L19] | 15.6 % of control | 18.4 % of control | substantially inhibits | 3.3 % of control | 4.1 % of control |  |  | localized to a soft tissue adjacent to rib
